Assay results: ChEMBL document CHEMBL4813924, “Isolation and Pharmacological Characterization of Six Opioidergic Picralima nitida Alkaloids” (J Nat Prod, 2021)
Activity calls are given as the source filed them. The calls are words filed in the database; no cut-off is given here.

What was measured:
Mus musculus [1] = experiment: Antinociceptive activity against C57Bl/6N mouse model of thermal-induced nociception at 6 mg/kg, sc measured at 30 mins by hot-plate test; assay type: functional, organism-based
Mus musculus [2] = experiment: Antinociceptive activity against C57Bl/6N mouse model of thermal-induced nociception at 6 mg/kg, sc measured at 30 mins by tail-flick test; assay type: functional, organism-based
[3] = molecular target: T1, Delta-type opioid receptor (Homo sapiens, UniProt P41143); experiment: Displacement of [3H]-DADLE from delta opioid receptor (unknown origin) expressed in HEK cells at 10 uM; assay type: cell-based; conditions: filed as agonist
T1 sequence (P41143 whole entry): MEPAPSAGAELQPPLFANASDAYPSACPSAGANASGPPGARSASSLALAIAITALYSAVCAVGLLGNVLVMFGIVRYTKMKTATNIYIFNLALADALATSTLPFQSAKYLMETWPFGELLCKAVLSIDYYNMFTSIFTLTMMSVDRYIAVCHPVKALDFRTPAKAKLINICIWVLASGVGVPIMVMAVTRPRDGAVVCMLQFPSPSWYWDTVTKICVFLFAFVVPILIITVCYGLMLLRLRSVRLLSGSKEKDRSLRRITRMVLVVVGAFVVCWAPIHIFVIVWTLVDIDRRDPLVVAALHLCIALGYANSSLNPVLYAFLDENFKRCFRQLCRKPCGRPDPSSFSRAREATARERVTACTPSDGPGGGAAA

[4] = molecular target: T1, Delta-type opioid receptor; experiment: Displacement of [3H]-DPDPE from human delta opioid receptor expressed in CHO-K1 cells by radioligand binding assay; assay type: cell-based
[5] = molecular target: T2, Kappa-type opioid receptor (Homo sapiens, UniProt P41145); experiment: Agonist activity at human kappa opioid receptor expressed in U2OS cells assessed as beta-arrestin2 recruitment incubated for 90 mins by PathHunter assay; assay type: functional, cell-based
T2 sequence (P41145 whole entry): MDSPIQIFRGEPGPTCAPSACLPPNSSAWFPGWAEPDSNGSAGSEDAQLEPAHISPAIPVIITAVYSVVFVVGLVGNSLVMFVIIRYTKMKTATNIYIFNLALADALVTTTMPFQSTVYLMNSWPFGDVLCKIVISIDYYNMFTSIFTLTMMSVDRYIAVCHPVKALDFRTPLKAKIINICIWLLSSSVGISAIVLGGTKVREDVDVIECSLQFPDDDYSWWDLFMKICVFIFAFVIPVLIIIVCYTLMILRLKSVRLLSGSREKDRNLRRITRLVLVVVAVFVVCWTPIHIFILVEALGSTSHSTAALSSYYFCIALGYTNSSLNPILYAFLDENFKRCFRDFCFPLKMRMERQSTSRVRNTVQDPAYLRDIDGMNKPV

[6] = molecular target: Delta-type opioid receptor (Mus musculus, UniProt P32300); experiment: Agonist activity at mouse FLAG-tagged delta opioid receptor expressed in HEK293 cells assessed as inhibition of forskolin-induced cAMP production preincubated for 20 mins followed by forskolin stimulation and measured after 15 mins by Glo-sensor reagent based assay; assay type: functional, cell-based
Delta-type opioid receptor (Mus musculus, UniProt P32300), sequence (P32300 whole entry): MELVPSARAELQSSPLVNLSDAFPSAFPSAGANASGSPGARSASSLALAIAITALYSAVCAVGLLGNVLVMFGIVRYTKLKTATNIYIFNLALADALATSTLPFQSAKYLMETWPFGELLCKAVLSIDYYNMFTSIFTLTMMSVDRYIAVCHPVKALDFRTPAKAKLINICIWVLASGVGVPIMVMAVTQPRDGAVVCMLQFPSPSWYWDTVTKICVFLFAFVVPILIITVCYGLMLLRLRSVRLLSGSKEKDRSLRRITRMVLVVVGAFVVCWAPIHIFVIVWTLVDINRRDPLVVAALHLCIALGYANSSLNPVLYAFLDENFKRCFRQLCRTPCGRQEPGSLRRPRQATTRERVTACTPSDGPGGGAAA

Mu-type opioid receptor [7] = molecular target: Mu-type opioid receptor (Mus musculus, UniProt P42866); experiment: Agonist activity at mouse HA-tagged mu opioid receptor expressed in HEK293 cells assessed as inhibition of forskolin-induced cAMP production preincubated for 20 mins followed by forskolin stimulation and measured after 15 mins by Glo-sensor reagent based assay; assay type: functional, cell-based
Mu-type opioid receptor (Mus musculus, UniProt P42866), sequence (P42866 whole entry): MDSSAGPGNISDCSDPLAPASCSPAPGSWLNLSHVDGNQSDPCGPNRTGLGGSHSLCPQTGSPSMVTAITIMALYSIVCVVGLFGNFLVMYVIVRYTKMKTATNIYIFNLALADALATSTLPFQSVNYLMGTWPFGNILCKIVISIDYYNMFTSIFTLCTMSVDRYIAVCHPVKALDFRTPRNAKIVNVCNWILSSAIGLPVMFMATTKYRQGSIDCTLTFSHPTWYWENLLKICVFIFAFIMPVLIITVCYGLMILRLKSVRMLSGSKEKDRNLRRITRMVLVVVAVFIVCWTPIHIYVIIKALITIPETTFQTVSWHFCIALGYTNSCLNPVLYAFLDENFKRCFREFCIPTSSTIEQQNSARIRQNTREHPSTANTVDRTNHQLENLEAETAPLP

D(1B) dopamine receptor [8] = molecular target: T3, D(1B) dopamine receptor (Homo sapiens, UniProt P21918); experiment: Displacement of [3H]-SCH23390 from dopamine D5 receptor (unknown origin) expressed in HEK-293T cells assessed as inhibition constant; assay type: cell-based
T3 sequence (P21918 whole entry): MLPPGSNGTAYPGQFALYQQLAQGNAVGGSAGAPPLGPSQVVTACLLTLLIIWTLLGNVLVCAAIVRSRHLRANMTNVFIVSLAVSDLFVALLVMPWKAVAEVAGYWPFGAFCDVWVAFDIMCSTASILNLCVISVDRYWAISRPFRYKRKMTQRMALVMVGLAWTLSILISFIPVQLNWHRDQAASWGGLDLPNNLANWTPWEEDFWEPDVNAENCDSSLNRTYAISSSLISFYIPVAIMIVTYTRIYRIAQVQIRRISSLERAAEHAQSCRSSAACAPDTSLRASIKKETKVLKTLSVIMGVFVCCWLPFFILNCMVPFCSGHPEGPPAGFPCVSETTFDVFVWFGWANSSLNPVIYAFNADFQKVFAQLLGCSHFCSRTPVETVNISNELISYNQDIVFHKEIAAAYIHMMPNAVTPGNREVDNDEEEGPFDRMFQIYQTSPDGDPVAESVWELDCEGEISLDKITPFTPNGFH

[9] = molecular target: Histamine H3 receptor (Homo sapiens) (UniProt Q9Y5N1); experiment: Displacement of [3H]-alpha-methylhistamine from histamine H3 receptor (unknown origin) expressed in Flp-In-293 cells at 10 uM relative to control; assay type: cell-based
Histamine H3 receptor (Homo sapiens), sequence (Q9Y5N1 whole entry): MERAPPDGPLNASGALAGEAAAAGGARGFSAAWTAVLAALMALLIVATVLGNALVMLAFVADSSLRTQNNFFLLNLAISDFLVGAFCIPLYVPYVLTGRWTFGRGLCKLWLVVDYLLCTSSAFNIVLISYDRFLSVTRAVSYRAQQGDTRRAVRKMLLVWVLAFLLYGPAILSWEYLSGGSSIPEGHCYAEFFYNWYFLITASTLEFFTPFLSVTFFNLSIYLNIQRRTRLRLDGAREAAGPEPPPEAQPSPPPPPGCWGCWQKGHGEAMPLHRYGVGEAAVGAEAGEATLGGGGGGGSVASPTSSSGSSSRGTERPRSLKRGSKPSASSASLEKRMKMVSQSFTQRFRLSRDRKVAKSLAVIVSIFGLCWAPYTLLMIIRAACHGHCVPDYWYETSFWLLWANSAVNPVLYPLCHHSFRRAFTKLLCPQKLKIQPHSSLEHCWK

[10] = molecular target: T2, Kappa-type opioid receptor; experiment: Agonist activity at human kappa opioid receptor expressed in U2OS cells assessed as beta-arrestin2 recruitment incubated for 90 mins by PathHunter assay relative to U50488; assay type: functional, cell-based
[11] = molecular target: Kappa-type opioid receptor (Mus musculus, UniProt P33534); experiment: Agonist activity at mouse FLAG-tagged kappa opioid receptor expressed in HEK293 cells assessed as inhibition of forskolin-induced cAMP production preincubated for 20 mins followed by forskolin stimulation and measured after 15 mins by Glo-sensor reagent based assay; assay type: functional, cell-based
Kappa-type opioid receptor (Mus musculus, UniProt P33534), sequence (P33534 whole entry): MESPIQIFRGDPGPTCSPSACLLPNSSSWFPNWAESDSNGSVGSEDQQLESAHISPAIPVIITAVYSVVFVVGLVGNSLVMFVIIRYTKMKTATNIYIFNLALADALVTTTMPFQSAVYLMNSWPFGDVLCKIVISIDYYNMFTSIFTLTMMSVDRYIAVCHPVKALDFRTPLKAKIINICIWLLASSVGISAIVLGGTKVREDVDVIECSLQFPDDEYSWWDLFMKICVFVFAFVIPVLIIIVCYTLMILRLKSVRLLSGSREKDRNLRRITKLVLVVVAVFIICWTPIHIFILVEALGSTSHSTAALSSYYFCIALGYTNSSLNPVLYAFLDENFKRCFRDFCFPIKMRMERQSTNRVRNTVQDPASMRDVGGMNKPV

Mu-type opioid receptor [12] = molecular target: T4, Mu-type opioid receptor (Homo sapiens, UniProt P35372); experiment: Displacement of [3H]-DAMGO from human mu opioid receptor expressed in CHO-K1 cells by radioligand binding assay; assay type: cell-based
T4 sequence (P35372 whole entry): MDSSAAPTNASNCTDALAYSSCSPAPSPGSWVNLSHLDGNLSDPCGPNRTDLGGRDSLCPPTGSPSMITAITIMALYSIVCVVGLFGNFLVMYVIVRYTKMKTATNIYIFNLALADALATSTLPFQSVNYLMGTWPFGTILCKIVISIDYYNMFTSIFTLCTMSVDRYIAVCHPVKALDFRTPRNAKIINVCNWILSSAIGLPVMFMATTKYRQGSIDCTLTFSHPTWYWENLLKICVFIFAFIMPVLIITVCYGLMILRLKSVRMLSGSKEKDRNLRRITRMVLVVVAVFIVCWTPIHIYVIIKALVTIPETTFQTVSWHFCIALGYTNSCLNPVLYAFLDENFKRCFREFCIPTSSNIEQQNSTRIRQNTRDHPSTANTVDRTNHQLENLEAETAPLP

[13] = molecular target: T2, Kappa-type opioid receptor; experiment: Displacement of [3H]-U69593 from human kappa opioid receptor expressed in U2OS cells by radioligand binding assay; assay type: cell-based
D(1B) dopamine receptor [14] = molecular target: T3, D(1B) dopamine receptor; experiment: Displacement of [3H]-SCH23390 from dopamine D5 receptor (unknown origin) expressed in HEK-293T cells at 10 uM; assay type: cell-based
[15] = molecular target: Kappa-type opioid receptor (Mus musculus) (UniProt P33534); experiment: Agonist activity at mouse FLAG-tagged kappa opioid receptor expressed in HEK293 cells assessed as inhibition of forskolin-induced cAMP production preincubated for 20 mins followed by forskolin stimulation and measured after 15 mins by Glo-sensor reagent based assay relative to U50488; assay type: functional, cell-based; parameters: scale not given: the % may be the effect or the level left; conditions: filed as agonist
Kappa-type opioid receptor (Mus musculus), sequence (P33534 whole entry): as the sequence (P33534 whole entry) above

Mu-type opioid receptor [16] = molecular target: T4, Mu-type opioid receptor; experiment: Displacement of [3H]-DAMGO from mu opioid receptor (unknown origin) expressed in HEK cells at 10 uM; assay type: cell-based
[17] = molecular target: Mu-type opioid receptor (Mus musculus) (UniProt P42866); experiment: Agonist activity at mouse HA-tagged mu opioid receptor expressed in HEK293 cells assessed as inhibition of forskolin-induced cAMP production preincubated for 20 mins followed by forskolin stimulation and measured after 15 mins by Glo-sensor reagent based assay relative to DAMGO; assay type: functional, cell-based; parameters: scale not given: the % may be the effect or the level left; conditions: filed as agonist
Mu-type opioid receptor (Mus musculus), sequence (P42866 whole entry): as the sequence (P42866 whole entry) above

[18] = molecular target: Delta-type opioid receptor (Mus musculus) (UniProt P32300); experiment: Agonist activity at mouse FLAG-tagged delta opioid receptor expressed in HEK293 cells assessed as inhibition of forskolin-induced cAMP production preincubated for 20 mins followed by forskolin stimulation and measured after 15 mins by Glo-sensor reagent based assay relative to Leu-Enk; assay type: functional, cell-based; parameters: scale not given: the % may be the effect or the level left; conditions: filed as agonist
Delta-type opioid receptor (Mus musculus), sequence (P32300 whole entry): as the sequence (P32300 whole entry) above

[19] = molecular target: T2, Kappa-type opioid receptor; experiment: Displacement of [3H]-U69593 from kappa opioid receptor (unknown origin) expressed in HEK cells at 10 uM; assay type: cell-based; conditions: filed as agonist
[20] = molecular target: Sodium-dependent serotonin transporter (Homo sapiens) (UniProt P31645); experiment: Displacement of [3H]-citalopram from SERT (unknown origin) expressed in HEK cells at 10 uM relative to control; assay type: cell-based
Sodium-dependent serotonin transporter (Homo sapiens), sequence (P31645 whole entry, looked up): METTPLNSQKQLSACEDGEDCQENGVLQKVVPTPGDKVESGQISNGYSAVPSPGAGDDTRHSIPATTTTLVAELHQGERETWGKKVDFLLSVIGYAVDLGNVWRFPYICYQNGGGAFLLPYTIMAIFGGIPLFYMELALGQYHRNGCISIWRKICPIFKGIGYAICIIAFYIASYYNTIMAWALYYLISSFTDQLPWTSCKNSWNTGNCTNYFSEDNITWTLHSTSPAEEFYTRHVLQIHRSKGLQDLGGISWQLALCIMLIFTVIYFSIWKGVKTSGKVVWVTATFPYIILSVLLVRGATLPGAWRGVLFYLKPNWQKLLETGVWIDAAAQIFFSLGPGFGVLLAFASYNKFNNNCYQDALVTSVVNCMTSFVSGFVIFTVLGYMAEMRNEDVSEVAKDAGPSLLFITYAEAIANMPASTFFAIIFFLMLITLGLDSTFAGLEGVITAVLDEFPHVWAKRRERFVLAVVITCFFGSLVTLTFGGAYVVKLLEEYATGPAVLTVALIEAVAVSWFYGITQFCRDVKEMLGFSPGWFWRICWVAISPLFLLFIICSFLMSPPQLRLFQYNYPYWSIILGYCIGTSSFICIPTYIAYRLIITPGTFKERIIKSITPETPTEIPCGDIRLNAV

Mus musculus [21] = experiment: Antinociceptive activity against C57Bl/6N mouse model of thermal-induced nociception at 3 mg/kg, sc measured at 110 mins by hot-plate test; assay type: functional, organism-based
Mus musculus [22] = experiment: Antinociceptive activity against C57Bl/6N mouse model of thermal-induced nociception at 10 mg/kg, sc measured at 50 mins by tail-flick test; assay type: functional, organism-based
Mus musculus [23] = experiment: Antinociceptive activity against C57Bl/6N mouse model of thermal-induced nociception at 30 mg/kg, sc measured at 30 mins by tail-flick test; assay type: functional, organism-based

SMILES | inhibition [3] | Ki [4] | IC50 ([6]; read-out: IC50) | IC50 (Mu-type opioid receptor [7]) | Ki (D(1B) dopamine receptor [8]) | inhibition [9] | IC50 [11] | Ki (Mu-type opioid receptor [12]) | Ki [13] | inhibition (D(1B) dopamine receptor [14]) | Activity [15] | Activity [17] | Activity [18] | inhibition [19] | inhibition [20] | further results
CN1CC[C@]23c4c5ccc(O)c4O[C@H]2[C@@H](O)C=C[C@H]3[C@H]1C5 |  |  |  |  |  |  |  |  |  |  |  |  |  |  |  | Activity (Mus musculus [1]): Active; Activity (Mus musculus [2]): Active
C/C=C1/CN2CC[C@]34C(=C(C(=O)OC)[C@H]1C[C@H]23)Nc1ccccc14 [AKUAMMICINE] | Active | 23.2 µM | 12.4 µM | 8.24 µM | > 10 µM | < 60% | 240 nM | 3.31 µM | 89 nM | Active | 84% | 45% | 60% | Active | < 60% | EC50 [5]: 39.8 µM; IC50 ([6]; read-out: pIC50 (converted)): 12.6 µM; Activity ([10]; filed as agonist): 50%; inhibition (Mu-type opioid receptor [16]; filed as agonist): Active
C/C=C1/CN2CC[C@]34C(=Nc5ccccc53)[C@@H]2C[C@@H]1[C@@]4(COC(C)=O)C(=O)OC | Active | 60.3 µM | 24.4 µM | 18.7 µM | > 10 µM | < 60% | 2710 nM | 30.7 µM | 1110 nM | Active | 92% | 50% | 90% | Active | < 60% | Activity [10]: 30%; inhibition (Mu-type opioid receptor [16]): inactive
C/C=C1/CN2[C@@H]3C[C@@]45c6ccccc6N[C@]4(O3)[C@@H]2C[C@@H]1[C@@]5(COC(C)=O)C(=O)OC | Active | 98.8 µM |  | 45 µM | > 10 µM | < 60% | 1970 nM | 132 µM | 2380 nM | Active | 92% |  |  | Active | < 60% | inhibition (Mu-type opioid receptor [16]): inactive
C/C=C1/CN2[C@H]3Cc4c([nH]c5ccccc45)[C@@H]2C[C@@H]1[C@]3(CO)C(=O)OC |  | 15 µM | 15.4 µM | 3.14 µM |  |  |  | 0.32 µM | 14200 nM |  |  | 94% | 90% |  |  | Activity (Mus musculus [21]): inactive; Activity (Mus musculus [22]): Active; Activity (Mus musculus [23]): Active
C/C=C1/CN2CC[C@@]34c5cc(O)ccc5N(C)[C@]35OC[C@@]4(C(=O)OC)[C@H]1C[C@H]25 |  | 10.4 µM | 20.3 µM |  | > 10 µM | < 60% | 73 nM |  |  | Active |  |  |  |  | < 60% | 
C/C=C1/CN2CC[C@@]34c5ccccc5N(C)[C@]35OC[C@@]4(C(=O)OC)[C@H]1C[C@H]25 |  | 8.37 µM | 95.6 µM |  | > 10 µM | < 60% | 6460 nM |  |  | Active |  |  |  |  | < 60% | 
